# Experimental data published in patent US8163737B2 (Vertex Pharmaceuticals Incorporated, priority 2006, dated 2012).
# Ends that are not written are not given here.
# Tests used:
# [1] = test system: acute attacks of migraine; conditions: clinical trials; cited from earlier work
# [2] = test system: facial blood flow; conditions: marmoset, electrical stimulation of the trigeminal ganglion; cited from earlier work
# [3] = biological target: endogenous CGRP receptor (Homo sapiens, UniProt O60894+Q16602); test: CGRP functional antagonism using SK-N-MC-BLA (4C10), β-lactamase transcriptional reporter assay; type: cell-based; conditions: SK-N-MC (4C10) cells, inhibition of β-lactamase expression in the presence of 200 pM CGRP
# [4] = biological target: T1, CGRP receptor (SK-N-MC membrane) (Homo sapiens, UniProt O60894+Q16602); test: I125-CGRP binding displacement assay on purified SK-N-MC membrane
# T1 construct: Purified SK-N-MC membrane was purchased from Perkin Elmer; purchased Perkin Elmer; host or cells: SK-N-MC membrane
# Procedure, shortened: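 Displacement of I125-CGRP binding was measured by filtration and scintillation counting after 2 h room-temperature incubation with compound and SK-N-MC membranes (buffer pH 7.4, MgCl2, BSA, Tween). Percent displacement calculated against total binding and 1 uM cold CGRP nonspecific controls, then curve-fitted.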
# [5] = test system: middle meningeal artery; conditions: rats, electrical stimulation of the dura mater, prior administration; cited from earlier work
# [6] = test system: facial blood flow; conditions: rat, trigeminal ganglion stimulation; cited from earlier work
# T1 sequence (Q16602 23-461): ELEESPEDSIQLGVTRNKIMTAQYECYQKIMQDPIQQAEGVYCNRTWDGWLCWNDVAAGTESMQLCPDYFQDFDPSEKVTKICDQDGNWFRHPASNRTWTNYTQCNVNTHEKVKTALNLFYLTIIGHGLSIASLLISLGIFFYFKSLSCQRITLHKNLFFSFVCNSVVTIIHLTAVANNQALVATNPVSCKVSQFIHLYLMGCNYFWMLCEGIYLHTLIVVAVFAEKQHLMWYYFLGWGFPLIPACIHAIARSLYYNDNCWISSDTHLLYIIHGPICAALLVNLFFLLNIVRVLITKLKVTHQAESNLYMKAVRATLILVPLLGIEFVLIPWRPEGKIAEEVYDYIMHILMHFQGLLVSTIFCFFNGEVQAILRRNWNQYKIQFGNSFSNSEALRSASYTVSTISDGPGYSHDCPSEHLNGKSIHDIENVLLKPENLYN
# T1 sequence (O60894 27-148): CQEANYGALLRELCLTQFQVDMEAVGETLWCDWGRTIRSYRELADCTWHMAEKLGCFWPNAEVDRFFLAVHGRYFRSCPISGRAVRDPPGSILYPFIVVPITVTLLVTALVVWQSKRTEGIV
# endogenous CGRP receptor, sequence (Q16602 23-461): as the sequence (Q16602 23-461) above
# endogenous CGRP receptor, sequence (O60894 27-148): as the sequence (O60894 27-148) above
Compound,IC50 [3],Ki [4],also measured
NCCCC[C@H](NC(=O)[C@@H](Cc1cc(Br)c(O)c(Br)c1)NC(=O)N1CCC(N2Cc3ccccc3NC2=O)CC1)C(=O)N1CCN(c2ccncc2)CC1 [BIBN4096BS],,,efficacy in acute attacks of migraine [1]: effective in treating acute attacks of migraine; effect on increase in facial blood flow [2]: blocked
"CC(C)(C)CCN1C(=O)[C@H](CC(=O)N2CCC(N3CCc4ccccc4NC3=O)CC2)S[C@@H]1c1cccc(F)c1C1CCNCC1 [Compound 552, 3-(1-(2-((2R,5S)-2-(3-fluoro-2-(piperidin-4-yl)phenyl)-3-(3,3-dimethylbutyl)-4-oxothiazolidin-5-yl)acetyl)piperidin-4-yl)-4,5-dihydro-1H-benzo[d][1,3]diazepin-2(3H)-one]",< 1000 nM,< 1000 nM,
"CC(C)(C)CCN1C(=O)[C@H](CC(=O)N2CCC(N3CCc4ccccc4NC3=O)CC2)S[C@H]1c1cccc(F)c1C1CCNCC1 [Compound 553, 3-(1-(2-((2S,5S)-2-(3-fluoro-2-(piperidin-4-yl)phenyl)-3-(3,3-dimethylbutyl)-4-oxothiazolidin-5-yl)acetyl)piperidin-4-yl)-4,5-dihydro-1H-benzo[d][1,3]diazepin-2(3H)-one]",1000 to 5000 nM,< 1000 nM,
CC(C)(C)CCN1C(=O)[C@H](CC(=O)N2CCC(n3c(=O)[nH]c4ncccc43)CC2)S[C@@H]1c1cccc(F)c1C1CCNCC1 [Compound 554],< 1000 nM,< 1000 nM,
CC(C)(C)CCN1C(=O)[C@H](CC(=O)N2CCC(n3c(=O)[nH]c4ncccc43)CC2)S[C@H]1c1cccc(F)c1C1CCNCC1 [Compound 555],1000 to 5000 nM,< 1000 nM,
CC(C)(C)CCN1C(=O)[C@H](CC(=O)N2CCC(n3c(=O)[nH]c4ncccc43)CC2)SC1c1cccc(F)c1N1CCC(c2ccncc2)CC1 (some centres unmarked) [Compound 556],< 1000 nM,< 1000 nM,
"CGRP (8-37): a peptide CGRP antagonist (VTHRLAGLLSRSGGVVKNNFVPTNVGSKAF; ends and bridges not checked; UniProt P06881 90-119, looked up, fragment)",,,effect on increase of middle meningeal artery diameter [5]: blocked; effect on increased facial blood flow [6]: inhibited
